# Source: US20240374761A1, “ANIMAL MODEL HAVING HOMOLOGOUS RECOMBINATION OF MOUSE PTH1 RECEPTOR” (RADIUS PHARMACEUTICALS, INC., priority 2021, published 2024)
# Entries after “also recorded” stand apart in the source; their conditions may differ. Where two headings read alike, the source gives them in different places.
# Key:
# PTH1R (WT mice) = target: T1, PTH1R (WT mice) (Mus musculus, UniProt P41593); experiment: Antagonist response: blood calcium after co-injection with PTH(1-34) in WT mice; type: in vivo; settings: 3-month-old WT mice, 40 nmol/kg subcutaneous
# T1 construct: WT mice expressing the endogenous rodent PTH receptor; endogenous in cells; host or cells: wild-type C57BL/6(n) mice, in vivo (bone and kidney)
# T1 sequence (P41593 27-591): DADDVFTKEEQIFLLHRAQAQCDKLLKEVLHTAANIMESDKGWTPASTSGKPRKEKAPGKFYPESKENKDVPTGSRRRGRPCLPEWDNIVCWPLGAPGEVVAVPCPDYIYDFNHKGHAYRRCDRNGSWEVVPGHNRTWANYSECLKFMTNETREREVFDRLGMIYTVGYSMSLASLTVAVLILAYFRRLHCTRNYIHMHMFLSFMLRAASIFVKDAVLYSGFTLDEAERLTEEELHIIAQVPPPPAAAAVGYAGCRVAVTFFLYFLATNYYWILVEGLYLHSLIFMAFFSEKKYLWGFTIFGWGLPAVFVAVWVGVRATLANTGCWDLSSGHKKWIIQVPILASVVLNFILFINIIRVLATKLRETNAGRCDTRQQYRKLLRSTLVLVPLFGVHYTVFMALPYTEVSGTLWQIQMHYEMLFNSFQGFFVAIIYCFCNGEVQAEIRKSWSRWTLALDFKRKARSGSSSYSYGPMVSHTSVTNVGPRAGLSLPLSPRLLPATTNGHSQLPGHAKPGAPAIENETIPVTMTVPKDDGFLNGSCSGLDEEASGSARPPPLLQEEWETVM
# Description: (§1) Briefly, to assess the responses to antagonist PTH analogs, 3-month-old WT or hPTH1R-KI mice were injected subcutaneously with either (1) vehicle, (2) vehicle containing PTH(1-34) alone at 40 nmol/kg, or (3) PTH(1-34) at 40 nmol/kg together with an antagonist peptide, LA-PTH(7-36) or [Leu^11,dTrp^12,Trp^23,Tyr^36]-PTHrP(7-36), each antagonist at a dose of 500 nmol/kg (n=5 mice per group). Blood was collected from the tail vein and calcium was measured as described above in Example 13.
# [1] = cited from earlier work
# [2] = target: T2, human PTH1R (hPTH1R-KI mice) (Homo sapiens, UniProt Q03431); experiment: Blood ionized calcium (Ca++) response to PTH ligand analog injection in hPTH1R-KI mice; type: in vivo, mouse; settings: 40 nmol/kg subcutaneous
# T2 construct: Met593 (followed by a stop codon); expressed in transfected cells; host or cells: homozygous hPTH1R-KI C57BL/6 mice (knock-in at the mouse Pth1r locus), in vivo
# T2 sequence (Q03431 23-593 E90Y/S91D/E92V/E93P/K95Y/E96A): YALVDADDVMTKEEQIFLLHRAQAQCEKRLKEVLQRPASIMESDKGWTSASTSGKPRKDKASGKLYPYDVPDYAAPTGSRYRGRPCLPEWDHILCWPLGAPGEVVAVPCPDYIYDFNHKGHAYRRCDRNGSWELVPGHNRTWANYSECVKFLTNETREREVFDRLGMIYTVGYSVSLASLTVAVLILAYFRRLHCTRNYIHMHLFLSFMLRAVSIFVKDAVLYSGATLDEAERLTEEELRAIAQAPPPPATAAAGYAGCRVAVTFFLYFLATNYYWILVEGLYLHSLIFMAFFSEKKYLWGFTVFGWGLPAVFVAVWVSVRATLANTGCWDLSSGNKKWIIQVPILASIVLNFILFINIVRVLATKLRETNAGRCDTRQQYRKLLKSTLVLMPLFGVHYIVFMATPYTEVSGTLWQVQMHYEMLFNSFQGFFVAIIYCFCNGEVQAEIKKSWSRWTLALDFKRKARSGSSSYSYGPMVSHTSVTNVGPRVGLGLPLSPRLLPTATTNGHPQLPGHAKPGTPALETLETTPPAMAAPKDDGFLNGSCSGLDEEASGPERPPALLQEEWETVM
# Description: (§2) The utility of the hPTH1R-KI mice of the present disclosure as a model for predicting the behavior of different PTH and PTHrP analog peptides was evaluated. Ligand-induced PTH1R signaling in bone and kidney results in a rapid increase in blood levels of free ionized calcium (Ca^++) and a decrease in blood levels of inorganic phosphorus (Pi); changes that occur through the promotion of the release of Ca and Pi from bone mineral stores, the reabsorption of Ca from the renal filtrate, and a suppression of Pi reabsorption in the kidney. Thus, blood Ca^++ and Pi levels were measured in WT and hPTH1R-KI mice before and at times after injection of PTH ligands.
# Blood ionized calcium (Ca^++) levels were measured in homozygous mice comprising a heterologous polynucleotide comprising human Parathyroid Hormone 1 Receptor (hPTH1R) exons 4 to 16 (hereinafter “hPTH1R-KI” mice), and WT C57BL/6(n) mice, at age 10 weeks. Mice were treated in accordance with the ethical guidelines adopted by the Massachusetts General Hospital (MGH). Mice were injected subcutaneously in the interscapular region with vehicle (5 mM citrate, 150 mM NaCl, 0.05% Tween80, pH 5.0), or vehicle containing either PTH(1-34), PTHrP(1-36) or abaloparatide, each peptide at a dose of 40 nmol/kg of body weight, with five animals per group.
# (§3) Blood was collected from a ˜2 mm tail vein incision and placed into heparinized capillary tube (Multi-cap-S, Siemens Healthcare Diagnostics Inc, Catalog No. 05656514) just prior to injection (t=0), and at 1, 2, 4 and 8 hours after injection, then immediately analyzed for pH-adjusted ionized calcium using a Siemens RapidLab 348 Ca^2+/pH analyzer.
# Data was processed using Microsoft Excel 2016 and GraphPad Prism 8.0. Data is represented as means+/−standard error, and statistical significance was assessed using a two-tailed Students t-test. Two replicate experiments were performed on separated days for each set of 20 hPTH1R-KI and 20 WT control mice n hPTH1R-KI mice. The replicate experiments gave essentially the same result for the two groups, and the data (n=10) were combined as means+SEM.
# [3] = target: T2, human PTH1R (hPTH1R-KI mice); experiment: Antagonist response: blood calcium after co-injection with PTH(1-34) in hPTH1R-KI mice; type: in vivo, mouse; settings: 3-month-old hPTH1R-KI mice, 40 nmol/kg subcutaneous
# Description: as §1
# [4] = target: T3, endogenous rodent PTH receptor (WT C57BL/6 mice) (Mus musculus, UniProt P41593); experiment: Blood ionized calcium (Ca++) response to PTH ligand analog injection in wild-type mice; type: in vivo; settings: 40 nmol/kg subcutaneous
# T3 construct: WT mice expressing the endogenous rodent PTH receptor; endogenous in cells; host or cells: wild-type C57BL/6(n) mice, in vivo (bone and kidney)
# T3 sequence (P41593 27-591): T1 sequence (P41593 27-591)
# Description: as §2
# Blood ionized calcium (Ca^++) levels were measured in homozygous mice comprising a heterologous polynucleotide comprising human Parathyroid Hormone 1 Receptor (hPTH1R) exons 4 to 16 (hereinafter “hPTH1R-KI” mice), and WT C57BL/6(n) mice, at age 10 weeks. Mice were treated in accordance with the ethical guidelines adopted by the Massachusetts General Hospital (MGH). […]
# as §3, with “analyzer. […]” for “analyzer.”
# [5] = target: T2, human PTH1R (hPTH1R-KI mice); experiment: Serum inorganic phosphorus (Pi) response to PTH ligand analog injection in hPTH1R-KI mice; type: in vivo; settings: 40 nmol/kg
# Description: To assess changes to blood Pi in response to PTH ligand injection, 10-week-old hPTH1R-KI and wild-type mice were injected with PTH(1-34), PTHrP(1-36), or Abaloparatide (see Example 13) each at a dose of 40 nmol/kg (n=5 mice per group). Tail vein blood was collected into a 1 mL microcentrifuge tubes containing 3 μL 0.5 mM EDTA on ice at t=0, 1, 2, 4, and 8 hours post-injection. The blood samples were centrifuged at 8,000 rpm at 4° C. for 15 minutes, and plasma supernatant was collected and frozen at −80° C. Plasma phosphate was analyzed using a colorimetric phosphate assay kit (AbCam. UK, Catalog No. ab65622).
# [6] = tested on: ovariectomy-induced osteopenic rats; settings: cited from earlier work
# [7] = tested on: ovariectomy-induced osteopenic monkeys; settings: cited from earlier work
# [8] = target: T4, RG conformation of the PTH1R (Homo sapiens, UniProt Q03431); settings: versus R0 conformation; compared with teriparatide / PTH and PTHrP ligands; cited from earlier work
# T4 sequence (Q03431 27-593): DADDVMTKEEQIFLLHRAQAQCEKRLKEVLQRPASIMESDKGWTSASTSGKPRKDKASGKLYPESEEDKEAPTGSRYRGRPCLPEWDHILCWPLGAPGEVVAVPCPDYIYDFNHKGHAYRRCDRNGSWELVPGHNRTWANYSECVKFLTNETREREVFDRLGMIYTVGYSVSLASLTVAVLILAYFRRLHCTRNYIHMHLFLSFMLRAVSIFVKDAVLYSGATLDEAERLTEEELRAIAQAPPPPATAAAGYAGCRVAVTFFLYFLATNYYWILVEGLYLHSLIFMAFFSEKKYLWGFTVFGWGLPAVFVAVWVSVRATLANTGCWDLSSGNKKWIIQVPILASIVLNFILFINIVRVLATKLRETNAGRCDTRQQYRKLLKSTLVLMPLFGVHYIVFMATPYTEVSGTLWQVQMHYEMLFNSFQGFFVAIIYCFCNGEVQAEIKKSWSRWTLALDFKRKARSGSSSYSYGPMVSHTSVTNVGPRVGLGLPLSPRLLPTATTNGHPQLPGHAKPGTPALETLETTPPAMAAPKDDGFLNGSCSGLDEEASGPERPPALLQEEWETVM
compound,measurement,setting,value
CC[C@H](C)[C@H](NC(=O)[C@H](CCC(=O)O)NC(=O)[C@H](CO)NC(=O)[C@@H](NC(=O)[C@@H](N)CO)C(C)C)C(=O)N[C@@H](CCC(N)=O)C(=O)N[C@@H](CC(C)C)C(=O)N[C@@H](CCSC)C(=O)N[C@@H](Cc1cnc[nH]1)C(=O)N[C@@H](CC(N)=O)C(=O)N[C@@H](CC(C)C)C(=O)NCC(=O)N[C@@H](CCCCN)C(=O)N[C@@H](Cc1cnc[nH]1)C(=O)N[C@@H](CC(C)C)C(=O)N[C@@H](CC(N)=O)C(=O)N[C@@H](CO)C(=O)N[C@@H](CCSC)C(=O)N[C@@H](CCC(=O)O)C(=O)N[C@@H](CCCN=C(N)N)C(=O)N[C@H](C(=O)N[C@@H](CCC(=O)O)C(=O)N[C@@H](Cc1c[nH]c2ccccc12)C(=O)N[C@@H](CC(C)C)C(=O)N[C@@H](CCCN=C(N)N)C(=O)N[C@@H](CCCCN)C(=O)N[C@@H](CCCCN)C(=O)N[C@@H](CC(C)C)C(=O)N[C@@H](CCC(N)=O)C(=O)N[C@@H](CC(=O)O)C(=O)N[C@H](C(=O)N[C@@H](Cc1cnc[nH]1)C(=O)N[C@@H](CC(N)=O)C(=O)N[C@@H](Cc1ccccc1)C(=O)O)C(C)C)C(C)C [PTH(1-34)],blood calcium levels after PTH(1-34) alone,PTH1R (WT mice),expected rise in blood calcium levels
same,rate of clearance from the blood,[1]; previous analyses,comparable rates of clearance
same,duration of calcemic response,[2],more prolonged calcemic response
same,blood Ca++ levels at 4 hours,[2],remained elevated
same,blood calcium levels after PTH(1-34) alone,[3],expected rise in blood calcium levels
same,difference in calcemic response duration compared to the other two ligands,[4],not seen
same,phosphaturic response profile,[5],more prolonged activity in vivo
same,serum Pi levels at 2 hours post-injection,[5],remained low
PTHrP(1-36),duration of calcemic response,[2],more a transient functional response
same,blood Ca++ levels at 4 hours,[2],returned to baseline
"abaloparatide: synthetic 34-amino acid PTHrP(1-34)-based analogue, AVSEHQLLHDKGKSIQDLRRRELLEKLLXKLHTA, X is Aib (SEQ ID NO: 22)",reversal of bone loss,[6],complete reversal of bone loss
same,reversal of bone loss,[7],complete reversal of bone loss
same,binding selectivity for the RG conformation of PTH1R,[8],more selectively than teriparatide; also recorded: greater selectivity
same,rate of clearance from the blood,[1]; in vivo,comparable rates of clearance
same,duration of calcemic response,[2],more a transient functional response
same,blood Ca++ levels at 4 hours,[2],returned to baseline
same,serum Pi levels at 2 hours post-injection,[5],returned to near-vehicle control levels
